Data taken from PubChem BioAssay AID248 (DTP/NCI, 2004).
Inconclusive results and toxic doses are left out. Rule as the data show it: active = T/C of 150% or more; inactive = T/C below 125%.

Test system: L1210 leukemia ip in BDF1 mice, survival T/C
Assay: NCI In Vivo Anticancer Drug Screen. Data for tumor model L1210 Leukemia (intraperitoneal) in B6D2F1 (BDF1) mice
Conditions: endpoint: mean survival time, higher = longer survival
Outline: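 Antitumor effect is assessed in tumor-bearing animals. Survival in the compound arm is compared with a vehicle-dosed control arm and expressed as their quotient.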

[1] = dose: 100.0 mg/kg/injection, schedule: Q01DX001 (ip), vehicle: saline
[2] = dose: 100.0 mg/kg/injection, schedule: Q04DX003 (ip), vehicle: Klucel (hydroxypropylcellulose) (HPC)
[3] = dose: 200.0 mg/kg/injection, schedule: Q01DX001 (ip), vehicle: saline
[4] = dose: 400.0 mg/kg/injection, schedule: Q01DX001 (ip), vehicle: saline
[5] = dose: 100.0 mg/kg/injection, schedule: Q04DX002 (ip), vehicle: saline with Tween-80
[6] = dose: 200.0 mg/kg/injection, schedule: Q04DX002 (ip), vehicle: saline with Tween-80
[7] = dose: 400.0 mg/kg/injection, schedule: Q04DX002 (ip), vehicle: saline with Tween-80
[8] = dose: 100.0 mg/kg/injection, schedule: Q01DX009 (ip), vehicle: Klucel (hydroxypropylcellulose) (HPC)
[9] = dose: 200.0 mg/kg/injection, schedule: Q01DX009 (ip), vehicle: Klucel (hydroxypropylcellulose) (HPC)
[10] = dose: 200.0 mg/kg/injection, schedule: Q04DX003 (ip), vehicle: Klucel (hydroxypropylcellulose) (HPC)
[11] = dose: 400.0 mg/kg/injection, schedule: Q04DX003 (ip), vehicle: Klucel (hydroxypropylcellulose) (HPC)
[12] = dose: 100.0 mg/kg/injection, schedule: Q01DX009 (ip), vehicle: saline
[13] = dose: 100.0 mg/kg/injection, schedule: Q04DX003 (ip), vehicle: saline
[14] = dose: 200.0 mg/kg/injection, schedule: Q01DX009 (ip), vehicle: saline
[15] = dose: 200.0 mg/kg/injection, schedule: Q04DX003 (ip), vehicle: saline
[16] = dose: 400.0 mg/kg/injection, schedule: Q01DX009 (ip), vehicle: saline
[17] = dose: 400.0 mg/kg/injection, schedule: Q04DX003 (ip), vehicle: saline
[18] = dose: 100.0 mg/kg/injection, schedule: Q04DX003 (ip), vehicle: saline with Tween-80
[19] = dose: 200.0 mg/kg/injection, schedule: Q04DX003 (ip), vehicle: saline with Tween-80
[20] = dose: 400.0 mg/kg/injection, schedule: Q04DX003 (ip), vehicle: saline with Tween-80
[21] = dose: 100.0 mg/kg/injection, schedule: Q04DX002 (ip), vehicle: saline
[22] = dose: 200.0 mg/kg/injection, schedule: Q04DX002 (ip), vehicle: saline
[23] = dose: 100.0 mg/kg/injection, schedule: Q01DX009 (ip), vehicle: saline with Tween-80
[24] = dose: 200.0 mg/kg/injection, schedule: Q01DX009 (ip), vehicle: saline with Tween-80

Measured: T/C

O=S1(=O)CC23CCC2(COC3)C1 (stereo not given)
inactive: dose: 12.5 mg/kg/injection, schedule: Q04DX003 (ip), vehicle: saline 97 % of control | dose: 25.0 mg/kg/injection, schedule: Q04DX003 (ip), vehicle: saline 94 % of control | dose: 50.0 mg/kg/injection, schedule: Q04DX003 (ip), vehicle: saline 92 % of control

Cc1nc(N)nc(N)c1-c1ccc([N+](=O)[O-])cc1
inactive: dose: 100.0 mg/kg/injection, schedule: Q01DX001 (ip), vehicle: carboxymethylcellulose (CMC) 95 % of control | dose: 200.0 mg/kg/injection, schedule: Q01DX001 (ip), vehicle: carboxymethylcellulose (CMC) 95 % of control

O=C(O)C#Cc1ccccc1
inactive: dose: 25.0 mg/kg/injection, schedule: Q04DX003 (ip), vehicle: Klucel (hydroxypropylcellulose) (HPC) 107 % of control | dose: 50.0 mg/kg/injection, schedule: Q04DX003 (ip), vehicle: Klucel (hydroxypropylcellulose) (HPC) 98 % of control | [1] 100 % of control | [2] 96 % of control

NC(=O)Oc1ccccc1Cl
inactive: dose: 75.0 mg/kg/injection, schedule: Q04DX003 (ip), vehicle: Klucel (hydroxypropylcellulose) (HPC) 104 % of control | dose: 150.0 mg/kg/injection, schedule: Q04DX003 (ip), vehicle: Klucel (hydroxypropylcellulose) (HPC) 100 % of control | dose: 300.0 mg/kg/injection, schedule: Q04DX003 (ip), vehicle: Klucel (hydroxypropylcellulose) (HPC) 105 % of control

O=C1OC2CCC3C1C3C2Br (stereo not given)
inactive: dose: 25.0 mg/kg/injection, schedule: Q01DX009 (ip), vehicle: acetone 92 % of control

CC1(C)C[n+]2noc([O-])c2C(C)(C)C1
inactive: dose: 0.19 mg/kg/injection, schedule: Q04DX003 (ip), vehicle: alcohol 104 % of control | dose: 0.39 mg/kg/injection, schedule: Q01DX009 (ip), vehicle: alcohol 100 % of control | dose: 0.39 mg/kg/injection, schedule: Q04DX003 (ip), vehicle: alcohol 96 % of control | dose: 0.78 mg/kg/injection, schedule: Q01DX009 (ip), vehicle: alcohol 105 % of control | dose: 0.78 mg/kg/injection, schedule: Q04DX003 (ip), vehicle: alcohol 113 % of control | dose: 1.56 mg/kg/injection, schedule: Q01DX009 (ip), vehicle: alcohol 105 % of control | dose: 1.56 mg/kg/injection, schedule: Q04DX003 (ip), vehicle: alcohol 96 % of control

CCCCCC(=O)NC1CCCCC1
inactive: dose: 75.0 mg/kg/injection, schedule: Q01DX001 (ip), vehicle: saline 89 % of control | dose: 150.0 mg/kg/injection, schedule: Q01DX001 (ip), vehicle: saline 89 % of control

C/C=C/C(O)(C(=O)OCC)C(C)C (stereo not given)
inactive: [1] 111 % of control | [3] 96 % of control | [4] 100 % of control

Nc1cccc(C(=O)Nc2ccc(S(=O)(=O)F)cc2)c1
inactive: [1] 107 % of control | [3] 106 % of control | [4] 112 % of control

O=C1c2ccccc2C(=O)c2[nH]ncc21
inactive: [5] 102 % of control | [6] 95 % of control | [7] 91 % of control

O=C1/C(=C/c2c(Cl)cccc2Cl)CCC/C1=C\c1c(Cl)cccc1Cl
inactive: [8] 104 % of control | [2] 111 % of control | [9] 108 % of control | [10] 101 % of control | dose: 400.0 mg/kg/injection, schedule: Q01DX009 (ip), vehicle: Klucel (hydroxypropylcellulose) (HPC) 90 % of control | [11] 101 % of control

COc1cc(/C=C/C(=O)c2ccc3ccccc3c2)cc(OC)c1OC
inactive: [5] 97 % of control | [6] 107 % of control | [7] 87 % of control

O=C(CCCCC(=O)N/N=C\c1ccccn1)N/N=C\c1ccccn1
inactive: [12] 98 % of control | [13] 96 % of control | [14] 89 % of control | [15] 107 % of control | [16] 100 % of control | [17] 89 % of control

OCCOc1ccc(OCCO)cc1
inactive: [18] 94 % of control | [19] 97 % of control | [20] 99 % of control

CC(=O)NC(C)C
inactive: [18] 93 % of control | [19] 100 % of control | [20] 96 % of control

CC(=O)NC(CC(=O)O)C(=O)O (stereo not given)
inactive: dose: 50.0 mg/kg/injection, schedule: Q01DX009 (ip), vehicle: Klucel (hydroxypropylcellulose) (HPC) 97 % of control | dose: 50.0 mg/kg/injection, schedule: Q04DX002 (ip), vehicle: saline 107 % of control | [8] 105 % of control | [12] 107 % of control | [21] 107 % of control | [2] 90 % of control | [9] 101 % of control | [14] 113 % of control | [22] 98 % of control | [10] 87 % of control | [16] 102 % of control | [11] 97 % of control

NC(=O)N/N=C\c1ccco1
inactive: dose: 25.0 mg/kg/injection, schedule: Q04DX003 (ip), vehicle: saline with Tween-80 106 % of control | dose: 50.0 mg/kg/injection, schedule: Q04DX003 (ip), vehicle: saline with Tween-80 100 % of control | [2] 106 % of control | [18] 94 % of control | [10] 102 % of control | [11] 98 % of control

O=C1C(=O)c2ccccc2C(O)=C1Nc1ccc(Cl)cc1
inactive: [1] 94 % of control | [3] 93 % of control | [4] 93 % of control

CN(C)CCSCCO
inactive: [21] 107 % of control | [22] 95 % of control | dose: 400.0 mg/kg/injection, schedule: Q04DX002 (ip), vehicle: saline 107 % of control

CC(=O)NC1CONC1=O (stereo not given)
inactive: [18] 98 % of control | [19] 98 % of control | [20] 94 % of control

CCC(O)(CC(=O)O)c1ccccc1 (stereo not given)
inactive: [23] 91 % of control | [18] 104 % of control | [24] 96 % of control | [19] 104 % of control | [20] 105 % of control

O=C(O)c1ccccc1C(=O)c1cccs1
inactive: [12] 94 % of control | dose: 100.0 mg/kg/injection, schedule: Q04DX003 (ip), vehicle: other 113 % of control | [14] 97 % of control | dose: 200.0 mg/kg/injection, schedule: Q04DX003 (ip), vehicle: other 105 % of control | [16] 96 % of control | dose: 400.0 mg/kg/injection, schedule: Q04DX003 (ip), vehicle: other 94 % of control

O=c1[nH]cnc2c(Cl)c(C(Cl)(Cl)Cl)nn12 (tested in a mixture with another compound)
inactive: [23] 97 % of control | [18] 104 % of control | [24] 92 % of control | [19] 98 % of control | dose: 400.0 mg/kg/injection, schedule: Q01DX009 (ip), vehicle: saline with Tween-80 97 % of control | [20] 97 % of control

CC(=O)OC1C=CC(Oc2ccc([N+](=O)[O-])cc2)OC1CO (stereo not given)
inactive: [13] 93 % of control | [15] 91 % of control | [17] 96 % of control

COS(=O)(=O)c1ccc(Cl)c([N+](=O)[O-])c1
inactive: dose: 0.38 mg/kg/injection, schedule: Q01DX009 (ip), vehicle: saline 97 % of control | dose: 0.75 mg/kg/injection, schedule: Q01DX009 (ip), vehicle: saline 102 % of control | dose: 0.75 mg/kg/injection, schedule: Q04DX003 (ip), vehicle: saline with Tween-80 101 % of control | dose: 1.5 mg/kg/injection, schedule: Q01DX009 (ip), vehicle: saline 97 % of control | dose: 1.5 mg/kg/injection, schedule: Q04DX003 (ip), vehicle: saline with Tween-80 90 % of control

CC(O)C(O)C(O)C(/C=N\NC(N)=S)=N/NC(N)=S (stereo not given)
inactive: [12] 95 % of control | [13] 104 % of control | [14] 89 % of control | [15] 105 % of control | [16] 90 % of control | [17] 94 % of control

CCCCCCCCCCCCCCCCNS(=O)(=O)c1ccc(S(=O)(=O)F)cc1
inactive: [18] 94 % of control | [19] 94 % of control | [20] 89 % of control

CCOC(=O)c1cc(=O)c2c(ccc3ccccc32)[nH]1
inactive: [2] 94 % of control | [10] 93 % of control
